# Experimental data as given in patent publication US6441027B1, “Method of regulating the female reproductive system through angiogenesis inhibitors” (Children's Medical Center Corporation, priority 1996, dated 2002).
# Entries after “also recorded” stand apart in the source; their conditions may differ. Read-outs that look alike come from different tables or passages of the source.
# Tests used:
# [1] = test system: VEGF induced neovascularization; assay: Mouse corneal micropocket model, VEGF pellet; assay type: in vivo; conditions: mouse cornea, n=10/group, p<0.001
# Protocol: To confirm that angiogenesis was being inhibited, AGM-1470 was tested in vivo. A mouse corneal micropocket model was used which was recently developed to model tumor angiogenesis. Pellets of bFGF or VEGF were implanted in the mouse cornea resulting in aggressive neovascularization. AGM-1470 inhibited the amount of bFGF or VEGF induced neovascularization by 47% or 62% respectively (n=10/group p<0.001).
# inseminated C57BL/6 mice = assay type: in vivo, mouse
# Excerpt: (§1) C57BL/6 male and female mice greater than seven weeks old were obtained from Takonic (Germantown, N.Y.). The mice were acclimated for at least five days prior to mating and housed in a twelve hour on and twelve hour off light schedule. The mice were mated in the evenings and vaginal plugs were checked for the next morning. Mating in mice is normally detected by the occurrence of vaginal plugs, which are formed by a mixture of the secretions of the vesicular and coagulating glands of the male and usually fill the vagina from cervix to vulva. The day of plugging was labeled Embryonic day 0 (E0). All animal studies were conducted according to the protocols approved by the Animal Ethics Committee of Children's Hospital. Plugged female mice were randomized and received either AGM-1470 30 mg/kg s.c. or saline on E1, 7, or 14. The dependence of female reproductive system on angiogenesis was examined by treating sexually mature inseminated and cycling mice with selective angiogenesis inhibitor AGM-1470.
# Mice were sacrificed on either E6, 9, 13 or 18 (one day prior to term gestation). Fetal viability was assessed and statistical analysis was performed with a Fisher's Exact Test.
# gravid uteri = assay: Gravid uterine weight after single dose; assay type: in vivo, mouse
# Excerpt: as §1
# Gravid uteri and ovaries were resected enbloc and weighed. Gravid uterine weight (grams wet weight, mean SE, n=3/day) in the control group increased exponentially from E6 (0.20±0.01), to E9 (0.53±0.05), E13 (3.78±0.36), and E18 (12.87±0.62). Gravid uterine weights from mice treated with AGM-1470 on E1 had no weight increase after E9 [E6 (0.29±0.01), E9 (0.63±0.01), E13 (0.72±0.08, p<0.05), and E18 (0.68±0.02, p<0.05)]. Gravid uterine weights from mice treated with AGM-1470 on E7 increased initially but then regresses after E13 [E9 (0.71±0.01), E13 (2.03±0.14, p<0.05), and E18 (1.08±0.06, p<0.05)].
# inseminated mice = assay: Gross morphology and hematoxylin/eosin histology of gravid uteri, embryos and ovaries; assay type: in vivo, mouse
# Protocol: FIGS. 1A-1I show the gross morphology of gravid mouse uteri. Inseminated mice were treated with AGM-1470 30 mg/kg s.c. or saline on Embryonic day 1 (E1) or E7, and mice were sacrificed at E9, 13 or 18. FIG. 1A, 1B, and 1C show the normal pattern of growth of fetuses on E9, E13 and E18.
# FIGS. 2A-2F show hematoxylin/eosin staining of mouse embryos on E9. Inseminated mice were treated with AGM-1470 […] s.c. or saline on E1 or E7, and mice were sacrificed at E9. Uteri were resected and stained with hematoxylin/eosin as described in the material and methods section. […] (P−placenta, D=decidua).
# Gravid uteri and ovaries were resected enbloc, weighed, fixed and Carnoy's fixative, and embedded in paraffin according to standard histological techniques. Sections were cut at 6 to 10 micrometers and stained with hematoxylin and eosin. When AGM-1470 was injected on E14, fetuses were allowed to come to term.
# [2] = test system: non-pregnant cycling mice; assay: Cycling mice, chronic treatment: estrous cycle and mating; assay type: in vivo, mouse
# Excerpt: Female mice were housed individually in cages and acclimated for one week. The stage of the estrous cycles was checked by visual inspection of the vagina according to the criteria of Champlin^28 and the examiner was blinded to the treatment group. Determining the stage of the estrous cycle in the mouse by the appearance of the vagina. Animals were monitored daily and graded for color, size of opening, striations and swelling. Based on these observations each individual was assigned to a cycle stage (diestrus, proestrus, estrus, or metestrus).
# (§2) Mice were randomized and received either AGM-1470 30 mg/kg s.c. or saline 0.1 ml s.c. every other day for 16 days (approximately four estrous cycles). On the last of four days of treatment mice were housed with male mice to see if successful mating and conception would occur. On day 16 mice were weighed and sacrificed by cervical dislocation. The ovaries were resected enbloc, fixed in Carnoy's fixative, and embedded in paraffin according to standard histologic techniques. Sections were cut at 6 microns and stained with hematoxylin and eosin.
# corpora lutea = assay: Cycling mice, chronic treatment: examination of the ovaries; assay type: in vivo, mouse; conditions: 30 mg/kg every other day for 16 days
# Protocol: as §2
smiles,measurement,setting,value
"CO[C@@H]1[C@H](OC(=O)NC(=O)CCl)CC[C@]2(CO2)[C@H]1[C@@]1(C)O[C@@H]1CC=C(C)C [AGM-1470, O-chloroacetylcarbamoyl fumagillol]",inhibition of VEGF induced neovascularization,[1],62%
same,toxicity to the pregnant mothers,inseminated C57BL/6 mice; 30 mg/kg single dose,no signs of toxicity
same,birth defects,inseminated C57BL/6 mice; drug given to pregnant mice during pregnancy,birth defects were not documented
same,fetal resorption on E18,"inseminated C57BL/6 mice; single dose 30 mg/kg s.c. on E1 (pre-implantation), n=69 embryos",100%
same,fetal resorption on E18,"inseminated C57BL/6 mice; single dose 30 mg/kg s.c. on E7 (post-implantation), n=36",100%
same,litters,"inseminated C57BL/6 mice; single dose 30 mg/kg s.c. on E14, n=46",normal litters
same,gravid uterine weight,"gravid uteri; treated on E1, weighed E6, n=3",0.29±0.01 grams wet weight
same,gravid uterine weight,"gravid uteri; treated on E1, weighed E9, n=3",0.63±0.01 grams wet weight
same,gravid uterine weight,"gravid uteri; treated on E1, weighed E13, n=3",0.72±0.08 grams wet weight
same,gravid uterine weight,"gravid uteri; treated on E1, weighed E18, n=3",0.68±0.02 grams wet weight
same,gravid uterine weight,"gravid uteri; treated on E7, weighed E9, n=3",0.71±0.01 grams wet weight
same,gravid uterine weight,"gravid uteri; treated on E7, weighed E13, n=3",2.03±0.14 grams wet weight
same,gravid uterine weight,"gravid uteri; treated on E7, weighed E18, n=3",1.08±0.06 grams wet weight
same,placental development (histology),inseminated mice; 30 mg/kg on E1,failure of placental development
same,placental development (histology),inseminated mice; 30 mg/kg on E7,inhibition of placental and fetal development; also recorded: decrease in nucleated red blood cells and labyrinth structure in the placenta
same,gross morphology of gravid uteri,inseminated mice; 30 mg/kg s.c. on E7,hemorrhage around the implantation sites by E13; also recorded: resorption by E18
same,fetal histology on E9,inseminated mice; both treated groups (E1 or E7),Fetal disorganization
same,embryo histology on E9,inseminated mice; injected on E1,"small, disorganized embryo"
same,nucleated red blood cells in E9 embryos,inseminated mice; injected on E7,reduced nucleated red blood cells in the embryo; also recorded: marked decrease in nucleated red blood cells
same,histology of the ovaries,"inseminated mice; single dose on E1 or E7, all time points",appeared normal
same,gross morphology of gravid uteri,"inseminated mice; treated on E1, after E9",failure of further growth with resorption
same,"first occurrence of abnormal (closed, red, dry) vaginal morphology",[2]; 30 mg/kg s.c. every other day,5.6±3.2 days of treatment
same,mice with new vaginal morphology within 10 days of start of treatment,[2]; 30 mg/kg s.c. every other day,8 of 8
same,effect on estrous cycle,[2]; 30 mg/kg s.c. every other day for 16 days,interruption of the normal estrous cycle
same,time to full recovery after drug was discontinued,"[2]; chronic high dose, sexually mature cycling mice",7 weeks
same,successful mating (plugging),[2]; housed with males on last four days of 16 day treatment,no visually evident plugging
same,corpora lutea smaller than control,corpora lutea,61%
same,number of corpora lutea,corpora lutea; vs control,fewer; also recorded: decreased size and number of corpora lutea
